Test results published in US6596692B1, “Substance P analogs for the treatment of cancer” (Dabur Research Foundation, priority 2000, dated 2003).
Non-standard residues stand in square brackets, D forms with d. Residues, ends and D or L forms follow the SMILES beside them. *: point of attachment. Octanoyl = CCCCCCCC(=O)*; pHOPA = not defined here; Ac5c = NC1(C(=O)O)CCCC1; Butyryl = CCCC(=O)*

How the values were obtained:
MCF7 (breast) = assay: In vitro cytotoxic activity, MTT assay, 72 hours; assay type: cell-based, human; conditions: MCF-7, 100 pM
Procedure: (§1) In vitro Cytotoxic Activity of the Novel Synthesized Peptide Analogs
(§2) The cytotoxic activity of synthesized peptides was tested on six human tumor cell lines namely MCF7 (breast), U373 (glioblastoma), PTC, (colon), L132 (lung), Su.86.86 (pancreas), and KB (oral). The tumor cells were collected at exponential growth phase and resuspended in medium (1.5×10^6 cells/ml in RPMI 1640 containing 10% FBS). 150 μL of medium was added to the wells of a 96-well tissue culture plate (Nunc, Denmark) followed by 30 μl of cell suspension. The plate was left in an incubator (37° C., 5% CO2) overnight. 20 μl of the peptide (100 pM to 10 μM concentration) was added to marked wells of the 96-well plate. Each concentration was plated in triplicate. 20 μl of medium alone was added to control wells while wells without cells served as blanks. A total volume of 200 μL was ensured in each well and plate was left in incubator (37° C., 5% CO2). After 72 hours of incubation an MTT assay was performed and percentage cytotoxicity was calculated with respect to control cells.

PTC (colon) = assay: In vitro cytotoxic activity, MTT assay, 72 hours; assay type: cell-based, human
Procedure: as §1, §2

Su.86.86 (pancreas) = assay: In vitro cytotoxic activity, MTT assay, 72 hours; assay type: cell-based, human; conditions: Su8686, 100 pM
Procedure: as §1, §2

[1] = system: human colon adenocarcinoma (PTC) xenografts; assay: In vivo anti tumor activity on PTC tumor xenografts; design: species or system Balb/c athymic nude mice; conditions: 4.25 μg intravenously twice a day; for Tumor volumes, Average: group average
Procedure: In vivo Anti Tumor Activity of Substance P Analogs on PCT Tumor Xenografts Protocol The anti tumor activity of substance P analogs was studied in human colon adenocarcinoma (PTC) xenografts in nude mice. PTC tumor xenografts were grown in Balb/c athymic nude mice by subcutaneous inoculation of a single cell suspension of PTC cells (15×10^6 cells/100 μL). The tumor bearing animals were divided into 4 groups of three animals each including one group comprising untreated control animals. Treatment with Substance P Receptor Antagonists was initiated when the average tumor volumes, as measured using a vernier caliper, were between 400-800 mm^3. SEQ ID NO:5, SEQ ID NO:7 and SEQ ID NO:8 peptides were prepared at a concentration of 42.5 μg/ml and intravenously administered to the assigned group of tumor bearing animals at a dose of 4.25 μg/100 μL twice a day so that the total dose of 8.5 μg was administered to each animal. The treatment was continued for a period of 10 days. The antitumor activity of the compounds was monitored by measuring 15 tumor volumes every fourth day using the formula W*W*L*0.4 (W=smaller diameter, L=larger diameter). The percentage inhibition of tumor growth was calculated using. the formula (1−tumor volume-treated/ tumor volume-control)×100.

KB (oral) = assay: In vitro cytotoxic activity, MTT assay, 72 hours; assay type: cell-based, human; conditions: 100 pM
Procedure: as §1, §2

L132 (lung) = assay: In vitro cytotoxic activity, MTT assay, 72 hours; assay type: cell-based, human
Procedure: as §1, §2

SCLC cells = conditions: SCLC proliferation; read-out: IC50, inhibition of SCLC proliferation; cited from earlier work
Swiss 3T3 cells = conditions: cited from earlier work
SCLC xenografts = conditions: cited from earlier work
H-510 SCLC cells = conditions: liquid culture and semi-solid media, read-out: IC50, inhibition of proliferation; cited from earlier work
H-69 SCLC cells = conditions: liquid culture and semi-solid media, read-out: IC50, inhibition of proliferation; cited from earlier work
H69 SCLC cells = conditions: cited from earlier work
[2] = system: H69 SCLC cells xenografts; conditions: xenografts in vivo in nude mice; cited from earlier work

Compound | Tumor volumes, animal I ([1]; Day 6) [mm^3] | Tumor volumes, animal II ([1]; Day 6) [mm^3] | Tumor volumes, animal III ([1]; Day 6) [mm^3] | Tumor volumes, Average ([1]; Day 6) [mm^3] | Tumor volumes, animal I ([1]; Day 8) [mm^3] | Tumor volumes, animal II ([1]; Day 8) [mm^3] | Tumor volumes, animal III ([1]; Day 8) [mm^3] | Tumor volumes, Average ([1]; Day 8) [mm^3] | Tumor volumes, animal I ([1]; Day 12) [mm^3] | Tumor volumes, animal II ([1]; Day 12) [mm^3] | Tumor volumes, animal III ([1]; Day 12) [mm^3] | Tumor volumes, Average ([1]; Day 12) [mm^3] | Tumor volumes, animal I ([1]; Day 15) [mm^3] | Tumor volumes, animal II ([1]; Day 15) [mm^3] | Tumor volumes, animal III ([1]; Day 15) [mm^3] | Tumor volumes, Average ([1]; Day 15) [mm^3] | Tumor volumes, animal I ([1]; Day 19) [mm^3] | Tumor volumes, animal II ([1]; Day 19) [mm^3] | Tumor volumes, animal III ([1]; Day 19) [mm^3] | Tumor volumes, Average ([1]; Day 19) [mm^3] | other results
CC(C)C[C@H](NC(=O)[C@@H](Cc1c[nH]c2ccccc12)NC(=O)[C@H](Cc1ccccc1)NC(=O)[C@@H](Cc1c[nH]c2ccccc12)NC(=O)[C@H](CCC(N)=O)NC(=O)[C@@H](Cc1ccccc1)NC(=O)[C@@H]1CCCN1C(=O)[C@H](CCCCN)NC(=O)[C@@H]1CCCN1C(=O)[C@H](N)CCCNC(=N)N)C(=O)NC1(C(N)=O)CCCC1 [SEQ ID NO: 5, D-Arg-Pro-Lys-Pro-D-Phe-Gln-D-Trp-Phe-D-Trp-Leu-Ac5c-NH2] (H-[dR]PKP[dF]Q[dW]F[dW]L[Ac5c]-NH2; N-terminus assumed) | 307.8 | 520 | 687.7 | 505.1 | 748.8 | 1149.2 | 1411.2 | 1103.0 | 2049 | 3080.3 | 3840.0 | 2989.7 | 3310 | 3360 | 4480.0 | 3716.6 | 3582 | 1465.6 | 3499.2 | 2848.9 | Percentage cytotoxicity (MCF7 (breast)): Nil; Percentage cytotoxicity (PTC (colon); 100 pM): Nil; Percentage cytotoxicity (PTC (colon); 1 nM): 3.1 ± 0.5%; Percentage cytotoxicity (Su.86.86 (pancreas)): Nil; Tumor volumes, animal II ([1]; Day 22): 100 mm^3; Tumor volumes, animal III ([1]; Day 22): 2560.0 mm^3; Tumor volumes, Average ([1]; Day 22): 1330.0 mm^3
CCCC(=O)N[C@H](CCCNC(=N)N)C(=O)N1CCC[C@H]1C(=O)N[C@@H](CCCCN)C(=O)N1CCC[C@H]1C(=O)N[C@H](Cc1ccccc1)C(=O)N[C@@H](CCC(N)=O)C(=O)N[C@H](Cc1c[nH]c2ccccc12)C(=O)N[C@@H](Cc1ccccc1)C(=O)N[C@H](Cc1c[nH]c2ccccc12)C(=O)N[C@@H](CC(C)C)C(=O)NC1(C(N)=O)CCCC1 [SEQ ID NO: 7, Butanoyl-D-Arg-Pro-Lys-Pro-D-Phe-Gln-D-Trp-Phe-D-Trp-Leu-Ac5c-NH2] (Butyryl-[dR]PKP[dF]Q[dW]F[dW]L[Ac5c]-NH2) | 25.6 | 66.6 | 0 | 30.7 | 176.4 | 260.1 | 72 | 169.5 | 580.8 | 1440 | 281.6 | 767.4 | 946.4 | 2427.6 | 864 | 1412.6 | 1741 | 2253 | 1800 | 1931.3 | Percentage cytotoxicity (KB (oral)): Nil; Percentage cytotoxicity (L132 (lung); 100 nM): 9 ± 2.3%; Percentage cytotoxicity (L132 (lung); 10 μM): 15 ± 2.3%; Percentage cytotoxicity (PTC (colon); 100 pM): Nil; Percentage cytotoxicity (PTC (colon); 1 nM): Nil; Tumor volumes, animal I ([1]; Day 22): 2018 mm^3; Tumor volumes, animal II ([1]; Day 22): 3110 mm^3; Tumor volumes, animal III ([1]; Day 22): 0 mm^3; Tumor volumes, Average ([1]; Day 22): 1709.3 mm^3
CCCCCCCC(=O)N[C@H](CCCNC(=N)N)C(=O)N1CCC[C@H]1C(=O)N[C@@H](CCCCN)C(=O)N1CCC[C@H]1C(=O)N[C@H](Cc1ccccc1)C(=O)N[C@@H](CCC(N)=O)C(=O)N[C@H](Cc1c[nH]c2ccccc12)C(=O)N[C@@H](Cc1ccccc1)C(=O)N[C@H](Cc1c[nH]c2ccccc12)C(=O)N[C@@H](CC(C)C)C(=O)NC1(C(N)=O)CCCC1 [SEQ ID NO: 8, Octanoyl-D-Arg-Pro-Lys-Pro-D-Phe-Gln-D-Trp-Phe-D-Trp-Leu-Ac5c-NH2] (Octanoyl-[dR]PKP[dF]Q[dW]F[dW]L[Ac5c]-NH2) | 532.4 | 291.6 | 0 | 274.6 | 1020.6 | 691.2 | 0 | 570.6 | 2080.8 | 1440 | 156.8 | 1225.8 | 3880.8 | 2592 | 580.8 | 2351.2 | 3520.0 | 1474.8 | 1710 | 2234.9 | Tumor volumes, animal I ([1]; Day 22): 2312.0 mm^3; Tumor volumes, animal II ([1]; Day 22): 36 mm^3; Tumor volumes, animal III ([1]; Day 22): 3177 mm^3; Tumor volumes, Average ([1]; Day 22): 1841.6 mm^3
D-MePhe-D-Trp-Phe-D-TrpLeu(psi)-(CH2NH)-Leu-NH2) [Analog 6] |  |  |  |  |  |  |  |  |  |  |  |  |  |  |  |  |  |  |  |  | IC50 (SCLC cells): 2 µM
D-MePhe-D-Trp-Phe-DTrp-Leu-MPA [Analog 7] |  |  |  |  |  |  |  |  |  |  |  |  |  |  |  |  |  |  |  |  | IC50 (SCLC cells): 5 µM
[Arg^6,D-Trp^7,9, MePhe^8] substance P(6-11) [antagonist G] |  |  |  |  |  |  |  |  |  |  |  |  |  |  |  |  |  |  |  |  | potency relative to antagonist D (Swiss 3T3 cells; blocking bombesin/GRP mediated mitogenesis in Swiss 3T3 cells): ten fold less potent than antagonist D; inhibition of SCLC xenografts in vivo (SCLC xenografts): showed inhibition of SCLC xenografts in vivo
[D-Arg^1, D-Phe^5, D-Trp^7,9, Leu^11] substance P [Antagonist D] |  |  |  |  |  |  |  |  |  |  |  |  |  |  |  |  |  |  |  |  | IC50 (H-510 SCLC cells): 5 µM; IC50 (H-69 SCLC cells): 5 µM; potency relative to antagonist A (Swiss 3T3 cells; preventing cellular effects of bombesin/GRP and vasopressin in mouse 3T3 cells, also growth of SCLC cells in serumfree medium): five fold more potent than antagonist A
pHOPA-D-Trp-Phe-D-Trp-Leu-Leu-NH2 (pHOPA-[dW]F[dW]LL-NH2; reading uncertain) [Analog R] |  |  |  |  |  |  |  |  |  |  |  |  |  |  |  |  |  |  |  |  | inhibition of proliferation of H69 SCLC cells in vitro (H69 SCLC cells): inhibit the proliferation; inhibition of proliferation of H69 SCLC cells in xenografts [2]: inhibit the proliferation
